The test system of assay [1] is THP-1 cells. In words: TNFα release from THP-1 cells induced with meningococcal CPS pre-incubated with peptide (ELISA). The format is cell-based, human. Here is the method:
(§1) Human THP-1 (macrophage-like cells) and murine RAW 264.7 (TLR4-sufficient), 23ScCr (TLR4-deficient) and HEK-TLR2/6/CD14 stably transfected cell lines were stimulated with meningococcal CPS polymers with or without pre-incubation with LL-37 and its analogs (Table 1). CPS polymers were purified from the LPS-deficient serogroup B Neisseria meningitidis lpxA mutant as well as other meningococcal serogroups A, B, C, W135 and Y. Purified CPS samples were freshly dissolved in pyrogen-free sterile H2O at 1 mg/ml stock concentration and vortexed for 2 min. Working CPS concentrations (ranging from 100 µg/ml to 50 ng/ml) were made in duplicate wells using sterile PBS by serial fold dilutions in the 96-well tissue culture plates (Becton Dickinson, Franklin Lakes, NJ) at 50 µl final volumes. […] Freshly grown THP-1 cells and HEK-TLR2/6 transfected cells as well as murine macrophages, each adjusted to 10^6 cell/ml and 250 µl aliquots were dispensed into each well at final 250×10^3 cell density in the designated 96-well plates. The plates were incubated overnight at 37°C with 5% CO2 and humidity. Supernatants from stimulated cells were harvested and stored at −20°C until use.
(§2) The cytokines TNFα, IL-6 and CXCL10 (IP-10), released from THP-1 cells, and IL-8, released from HEK-TLR2 transfected cells stimulated with meningococcal CPS polymers, were quantified by DuoSet ELISA (R&D Systems) as previously described.
On the technique in general: ELISA stands for enzyme-linked immunosorbent assay.

Assay [2] deals with N. gonorrhoeae strain FA 19. As to conditions: for MIC activity against gonococci (in words): N. gonorrhoeae FA19. Here is the method:
The peptides were dissolved in 0.01 % (v/v) acetic acid and stored at −20°C prior to use. Antibacterial assays were performed as described previously and used N. gonorrhoeae strain FA 19. All assays were performed in triplicate and values are reported as the minimal inhibitory concentration (MIC).

The subject of assay [3] is THP-1 cells. In words: IL-6 release from THP-1 cells induced with meningococcal CPS pre-incubated with peptide (ELISA). As to conditions: THP-1 cells, CPS-lpxA 100 µg to 50 ng/ml with 10 µg/ml synthetic analogs; Figure 3B. The class given is cell-based, human. Here is the method:
as §1, with “Supernatants from stimulated cells were harvested and stored at −20°C until use.” left out
as §2

A further assay concerns RAW 264.7 macrophages. Description: Nitric oxide release from RAW 264.7 macrophages induced with meningococcal CPS (Griess method). The conditions noted are these: RAW 264, serogroup A CPS (laboratory NMA or vaccine grade MAPS 20 µg/ml) pre-incubated with 4 µg/ml analogs; nitrite after 24 h; Figure S1A, S1B. The format is cell-based, murine. The procedure:
(§3) Human THP-1 (macrophage-like cells) and murine RAW 264.7 (TLR4-sufficient), 23ScCr (TLR4-deficient) and HEK-TLR2/6/CD14 stably transfected cell lines were stimulated with meningococcal CPS polymers with or without pre-incubation with LL-37 and its analogs (Table 1). CPS polymers were purified from the LPS-deficient serogroup B Neisseria meningitidis lpxA mutant as well as other meningococcal serogroups A, B, C, W135 and Y. Purified CPS samples were freshly dissolved in pyrogen-free sterile H2O at 1 mg/ml stock concentration and vortexed for 2 min. Working CPS concentrations (ranging from 100 µg/ml to 50 ng/ml) were made in duplicate wells using sterile PBS by serial fold dilutions in the 96-well tissue culture plates (Becton Dickinson, Franklin Lakes, NJ) at 50 µl final volumes. Cationic peptides (2, 4 or 8 µg/ml) or PBS equivalent volumes were added to designated wells and pre-incubated for 30 min at 37°C. Freshly grown THP-1 cells and HEK-TLR2/6 transfected cells as well as murine macrophages, each adjusted to 10^6 cell/ml and 250 µl aliquots were dispensed into each well at final 250×10^3 cell density in the designated 96-well plates. The plates were incubated overnight at 37°C with 5% CO2 and humidity. Supernatants from stimulated cells were harvested and stored at −20°C until use.
Freshly grown adherent RAW 246.7 or 23ScCr (TLR4-deficient) macrophages were harvested, washed and re-suspended in Dulbecco's complete media, counted and adjusted to 10^6 cell/ml. 250 µl aliquots were then dispensed into each well of a 96-well plate at final 250×10^3 cell density prior to stimulation with purified CPS polymers with or without cationic peptides. The induced RAW 264.7 or 23ScCr macrophages were incubated overnight at 37°C with 5% CO2 and supernatants were harvested and saved. Nitric oxide release was quantified using the Greiss chemical method as previously described.
In general terms: The Griess reaction detects nitrite, a stable product of nitric oxide.

Assay [4] deals with ScCr (TLR4-deficient) murine macrophages. In words: Nitric oxide release from 23ScCr (TLR4-deficient) macrophages induced with meningococcal CPS (Griess method). The format is cell-based. The conditions noted are these: ScCr cells, 20 µg/ml CPS of serogroups A, B, C, Y, W135 pre-incubated 30 min with 4 µg/ml LL-37 analogs or 20 µg/ml ampicillin or erythromycin; overnight; Figure 6. Here is the method:
as §3, with “Freshly grown THP-1 cells and HEK-TLR2/6 transfected cells as well as murine macrophages, each adjusted to 10^6 cell/ml and 250 µl aliquots were dispensed into each well at final 250×10^3 cell density in the designated 96-well plates. The plates were incubated overnight at 37°C with 5% CO2 and humidity. Supernatants from stimulated cells were harvested and stored at −20°C until use.” left out
Freshly grown adherent RAW 246.7 or 23ScCr (TLR4-deficient) macrophages were harvested, washed and re-suspended in Dulbecco's complete media, counted and adjusted to 10^6 cell/ml. […] Nitric oxide release was quantified using the Greiss chemical method as previously described.

A further assay has as its system purified CPS polymers. Description: Neutralizing activity against purified CPS polymers (pro-inflammatory capacity of CPS). The class given is cell-based, Neisseria meningitidis. The conditions noted are these: compared with LL-37. Here is the method: as §3
A further assay relates to NFκB. In words: Inducible NFκB dual luciferase reporter in HEK-TLR2/6 cells stimulated with CPS-lpxA. The format is cell-based, human. As to conditions: CPS-lpxA (20 µg/ml) pre-incubated with analogs (4 µg/ml) 30 min, induction 5 h, firefly normalized to Renilla, Figure 7A. From the text: To determine the signaling pathways induced upon meningococcal CPS recognition, a transcription factors array (Cignal Finder™ 10-Pathway Reporter Arrays, SABiosciences, Fredrick, MD) consisting of 10 dual-luciferase reporters assays were used according to the manufacturer instructions. Each of the 10 reporter assays encodes for an inducible transcription factor responsive firefly luciferase reporter and constitutively expressing Renilla construct in 40∶1 ratio. Briefly, DNA reporter master mixes were prepared in SureFect transfection reagent (SABiosciences) diluted in Opti-MEM media without serum or antibiotics and 25 µl/well were dispensed into 96-well white tissue culture plates. For reverse transfection, freshly grown cells were counted and adjusted to 1×10^6 cells/ml in Opti-MEM without serum or antibiotics. 100 µl of cells (100×10^3 cells/well) were laid over the DNA reporters in 96-well plates and incubated overnight at 37°C with 5% CO2. Transfection media were removed and replaced with 150 µl of fresh D-MEM supplemented with 10% FBS and incubated again overnight at 37°C. Cells were then induced with meningococcal CPS polymers or LOS doses for 5 h and dual-luciferase reporter activity was determined using Dual-Luciferase reporter assay system (Promega Corporation, Madison, WI) following the manufacturer instructions. […]
For orientation: Reporter assays use an easily measured gene product as a stand-in for the process of interest.

Values after ≈ are worked out from the molar mass of the structure shown. Read-outs that look alike come from different tables or passages of the source. Residues, ends and D or L forms follow the SMILES beside them. No end group written: not given here. *: point of attachment. Lauroyl = CCCCCCCCCCCC(=O)*

Consider `CCCCCCCCCCCC(=O)N[C@@H](Cc1ccccc1)C(=O)N[C@@H](CCCCN)C(=O)N[C@@H](CCCNC(=N)N)C(=O)N[C@H](C(=O)N[C@H](C(=O)N[C@@H](CCC(N)=O)C(=O)N[C@@H](CCCNC(=N)N)C(=O)N[C@H](C(=O)N[C@@H](CCCCN)C(=O)N[C@@H](CC(N)=O)C(=O)N[C@@H](Cc1ccccc1)C(=O)N[C@@H](CC(C)C)C(=O)N[C@@H](CCCNC(=N)N)C(=O)N[C@@H](CC(N)=O)C(=O)N[C@@H](CC(C)C)C(=O)N[C@H](C(=O)O)C(C)C)[C@@H](C)CC)C(C)C)[C@@H](C)CC` [C12LL-17-32 D/N] (Lauroyl-FKRIVQRIKNFLRNLV-OH; C-terminus assumed), for which the “Inhibition of TNFα release (interaction with CPS polymers)” value with THP-1 cells [1] (THP-1 cells, CPS-lpxA 100 µg to 50 ng/ml with 10 µg/ml synthetic analogs, Figure 3A) is listed as “enhanced interaction with meningococcal CPS polymers”. Moreover, in assay [2] (strain FA 19), the MIC (in general, the lowest concentration that inhibits growth of the organism) is 3.9 µg/mL (≈ 1.75 µM). In addition, the “Inhibition of IL-6 release (interaction with CPS polymers)” value in the assay on THP-1 cells [3] is recorded as “enhanced interaction with meningococcal CPS polymers”. `CC1(C)S[C@@H]2[C@H](NC(=O)[C@H](N)c3ccccc3)C(=O)N2[C@H]1C(=O)O` [ampicillin]: the “Inhibition of CPS polymers (nitric oxide release)” value in the assay on RAW 264.7 macrophages was “this was not seen”. Besides, the “Nitric oxide release induced by various meningococcal CPS” value in assay [4] was “this inhibition was not observed”. With `CC[C@H]1OC(=O)[C@H](C)[C@@H](O[C@H]2C[C@@](C)(OC)[C@@H](O)[C@H](C)O2)[C@H](C)[C@@H](O[C@@H]2O[C@H](C)C[C@H](N(C)C)[C@H]2O)[C@](C)(O)C[C@@H](C)C(=O)[C@H](C)[C@@H](O)[C@]1(C)O` [erythromycin], in assay [4], the “Nitric oxide release induced by various meningococcal CPS” value is recorded as “this inhibition was not observed”.

In assay [2] (strain FA 19), EKIGKEFKRIVQRIKDFLRNLVPRTES [LL-11-37] registered a minimum inhibitory concentration (MIC) of 7.8 µg/mL. As for FKRIVQRIKDFLRNLV [LL-17-32], the MIC in assay [2] (strain FA 19) amounted to 3.9 µg/mL.

In assay [2] (strain FA 19), FKRIVQRIKNFLRNLV [LL-17-32 D/N] showed an MIC of 3.9 µg/mL. Same read-out and setting: under “LLGDFFDESEEEIGEEFEDIVQDIEDFLDNLVPDTES [LL-37 R/D-K/E]” stands greater than 1000 µg/mL; under “LLGDFFDKSKEKIGKEFKDIVQDIKDFLDNLVPDTES [LL-37 R/D]”, 125 µg/mL.

“LLGDFFRASAEAIGAEFARIVQRIADFLRNLVPRTES [LL-37 K/A]”: the MIC in assay [2] (strain FA 19) is greater than 1000 µg/mL. Take “LLGDFFRESEEEIGEEFERIVQRIEDFLRNLVPRTES [LL-37 K/E]”: the “Neutralizing activity against purified CPS polymers” value (from here on “Neutralizing activity”) with purified CPS polymers is “reduced neutralizing activity”. The same molecule gave an MIC in assay [2] (N. gonorrhoeae FA19 (non-encapsulated), assays in triplicate) greater than 1000 µg/mL. Molecule LLGDFFRKSKEKIGKEF [LL-1-17] returned an MIC in assay [2] (strain FA 19) greater than 1000 µg/mL.

For “LLGKFFKKSKKKIGKKFKKIVQKIKKFLKNLVPKTKS [LL-37 K]”, the “Neutralizing activity” value in the assay with purified CPS polymers was “did not enhance the neutralizing activity”. The “MIC activity against gonococci (in words)” value in assay [2] is reported as “retained excellent MIC activity”. The molecule also returned an MIC in assay [2] (strain FA 19) of 7.8 µg/mL.

For the molecule “LLGRFFRRSRRRIGRRFRRIVQRIRRFLRNLVPRTRS [LL-37 R]”, in the assay on purified CPS polymers, the “Neutralizing activity” value is given as “did not enhance the neutralizing activity”. Further, the “MIC activity against gonococci (in words)” value in assay [2] was “retained excellent MIC activity”. The molecule also gave an MIC in assay [2] (strain FA 19) of 15.6 µg/mL. As to Polymyxin B, the TNFα release result in the assay on THP-1 cells [1] (THP-1 cells induced with the CPS-lpxA-analog complexes of the NFκB experiment, Figure 7B) is listed as “decreased TNFα release”. For the same molecule, in the assay on RAW 264.7 macrophages, the “Inhibition of CPS polymers (nitric oxide release)” value is listed as “inhibited CPS polymers”. Further, in the assay with NFκB, the “CPS induced NFκB induction (luciferase reporter)” value is given as “able to inhibit”.
